Active and inactive are the calls of the source. For most assays here, no stated cut-off is given here; in the data, actives have a measured EC50 and inactives only a lower limit.
Tests used:
Streptococcus = test: GAS UMAA2166 growth inhibition – luminescence, BacTiterGlo, counter-screen for streptokinase expression inhibitor project, dose response (AID 1915); assay type: functional, organism-based;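 further: potency for reduction of bacterial viability or growth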
[1] = target: T1, Zinc finger protein mex-5 (Caenorhabditis elegans, UniProt Q9XUB2); test: potency of MEX-5 RNA-binding blockers – biochemical, C. elegans, fluorescence polarization, dose response (AID 1960)
T1 sequence (Q9XUB2 whole entry): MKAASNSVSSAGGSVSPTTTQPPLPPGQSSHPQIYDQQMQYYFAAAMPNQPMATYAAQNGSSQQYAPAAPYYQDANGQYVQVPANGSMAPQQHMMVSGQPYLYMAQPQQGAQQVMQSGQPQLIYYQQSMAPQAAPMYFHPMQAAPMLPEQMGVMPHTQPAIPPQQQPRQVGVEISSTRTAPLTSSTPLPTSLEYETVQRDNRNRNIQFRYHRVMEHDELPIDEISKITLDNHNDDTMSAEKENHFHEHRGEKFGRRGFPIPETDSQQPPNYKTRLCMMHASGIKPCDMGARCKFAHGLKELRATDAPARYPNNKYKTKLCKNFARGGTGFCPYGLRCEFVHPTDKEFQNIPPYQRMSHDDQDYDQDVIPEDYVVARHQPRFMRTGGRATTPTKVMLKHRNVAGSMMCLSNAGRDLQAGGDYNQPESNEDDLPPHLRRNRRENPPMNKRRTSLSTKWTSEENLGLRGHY

[2] = tested on: Streptococcus sp. 'group A'; test: Streptococcus pyogenes SK(-)GAS viability under kanamycin – luminescence, BacTiterGlo, confirmation, counter-screen for streptokinase expression inhibitor project, dose response (AID 1900); assay type: functional, organism-based
Streptokinase A = target: T2, Streptokinase A (Streptococcus pyogenes serotype M1, UniProt P10520); test: viability-normalized secreted streptokinase activity reduction – plasminogen activation absorbance, OD405, dose response (AID 1914); assay type: functional, Streptococcus pyogenes M1 GAS;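 further: secreted streptokinase activity via plasminogen activation per viability signal from cell pellet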
T2 sequence (P10520 whole entry): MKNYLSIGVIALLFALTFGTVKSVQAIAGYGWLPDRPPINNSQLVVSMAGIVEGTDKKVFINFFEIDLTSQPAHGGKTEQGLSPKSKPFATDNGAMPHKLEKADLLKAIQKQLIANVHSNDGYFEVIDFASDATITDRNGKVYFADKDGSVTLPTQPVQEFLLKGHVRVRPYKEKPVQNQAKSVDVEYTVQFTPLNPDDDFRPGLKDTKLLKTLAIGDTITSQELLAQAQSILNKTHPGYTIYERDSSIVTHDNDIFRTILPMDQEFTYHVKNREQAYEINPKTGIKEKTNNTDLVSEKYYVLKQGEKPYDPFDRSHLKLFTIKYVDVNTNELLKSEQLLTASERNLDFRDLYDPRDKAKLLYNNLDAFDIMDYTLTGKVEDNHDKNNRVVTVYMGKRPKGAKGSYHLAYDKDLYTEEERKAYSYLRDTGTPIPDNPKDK

[3] = target: T3, RNA-binding protein pos-1 (Caenorhabditis elegans, UniProt G5EF15); test: disruptors of C. elegans POS-1 RNA interaction – biochemical, fluorescence polarization, dose response (AID 1964);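 further: purified POS-1 fused to maltose binding protein made in E. coli; potency of compounds blocking POS-1 binding to fluorescent RNA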
T3 sequence (G5EF15 whole entry): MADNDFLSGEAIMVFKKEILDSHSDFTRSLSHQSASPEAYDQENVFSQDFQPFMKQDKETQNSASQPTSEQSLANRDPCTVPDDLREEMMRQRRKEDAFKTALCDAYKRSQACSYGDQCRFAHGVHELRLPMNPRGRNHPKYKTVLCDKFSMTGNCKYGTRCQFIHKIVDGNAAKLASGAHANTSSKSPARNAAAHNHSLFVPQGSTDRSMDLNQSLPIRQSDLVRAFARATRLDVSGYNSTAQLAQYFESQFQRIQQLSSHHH

Genome polyprotein = Genome polyprotein (dengue virus type 2, UniProt P29990); test: flavivirus cap methylation enzyme inhibition – biochemical, confirmation dose response, primary screen (AID 588689); assay type: functional
[4] = target: FAD-linked sulfhydryl oxidase ALR (Homo sapiens, UniProt P55789); test: ALR-catalysed DTT oxidation blockers – biochemical, H2O2 detection, luminescence, cherry-pick, dose response (AID 493248)
[5] = target: T4, High affinity choline transporter 1 (Homo sapiens, UniProt Q9GZV3); test: human choline transporter blockers, potency – cell-based, 5-point CRC, membrane potential dye, dose response (AID 504840); assay type: functional
T4 sequence (Q9GZV3 whole entry): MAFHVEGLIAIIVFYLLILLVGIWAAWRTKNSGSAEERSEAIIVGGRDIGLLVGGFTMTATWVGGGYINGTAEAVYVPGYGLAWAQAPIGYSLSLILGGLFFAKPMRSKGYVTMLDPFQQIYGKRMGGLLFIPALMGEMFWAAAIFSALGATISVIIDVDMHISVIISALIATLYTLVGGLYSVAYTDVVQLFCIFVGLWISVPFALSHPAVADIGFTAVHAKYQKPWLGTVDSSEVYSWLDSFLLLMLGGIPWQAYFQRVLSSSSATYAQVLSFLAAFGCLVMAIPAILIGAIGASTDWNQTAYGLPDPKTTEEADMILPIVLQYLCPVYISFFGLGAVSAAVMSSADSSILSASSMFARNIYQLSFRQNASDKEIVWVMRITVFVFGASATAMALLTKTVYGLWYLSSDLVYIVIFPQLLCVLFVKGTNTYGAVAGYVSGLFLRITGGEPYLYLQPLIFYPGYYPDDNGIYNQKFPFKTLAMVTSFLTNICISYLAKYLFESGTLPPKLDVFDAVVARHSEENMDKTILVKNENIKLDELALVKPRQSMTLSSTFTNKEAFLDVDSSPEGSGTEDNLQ

[6] = DRD fibroblast viability loss – cell-based, non-viral oncogenic, luminescence, dose response (AID 1934); assay type: functional; conditions: Homo sapiens
BJ [7] = test: cells; assay type: functional, cell-based; conditions: Homo sapiens
BJ [8] = test: BJ-TERT fibroblast viability loss – cell-based, RAS-independent, luminescence, dose response (AID 1933); assay type: functional; conditions: Homo sapiens
BJ [9] = test: BJ-TERT-LT-ST fibroblast viability loss – cell-based, RAS-independent, luminescence, dose response (AID 1935); assay type: functional; conditions: Homo sapiens;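 further: BJ fibroblasts immortalized with TERT plus LT and ST oncogenes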
[10] = target: Luciferin 4-monooxygenase (Photinus pyralis, UniProt P08659); test: inhibition of purified Photinus pyralis luciferase – biochemical, luminescence, dose response (AID 1891)
[11] = Luminescence Cell-Based Dose Confirmation HTS to Identify Inhibitors of Platelet Dense Granule Release. [Related pubchem assays: 1663 (Primary HTS), 1678 (Summary of Project)]; assay type: functional

Sequence of Luciferin 4-monooxygenase (P08659 whole entry): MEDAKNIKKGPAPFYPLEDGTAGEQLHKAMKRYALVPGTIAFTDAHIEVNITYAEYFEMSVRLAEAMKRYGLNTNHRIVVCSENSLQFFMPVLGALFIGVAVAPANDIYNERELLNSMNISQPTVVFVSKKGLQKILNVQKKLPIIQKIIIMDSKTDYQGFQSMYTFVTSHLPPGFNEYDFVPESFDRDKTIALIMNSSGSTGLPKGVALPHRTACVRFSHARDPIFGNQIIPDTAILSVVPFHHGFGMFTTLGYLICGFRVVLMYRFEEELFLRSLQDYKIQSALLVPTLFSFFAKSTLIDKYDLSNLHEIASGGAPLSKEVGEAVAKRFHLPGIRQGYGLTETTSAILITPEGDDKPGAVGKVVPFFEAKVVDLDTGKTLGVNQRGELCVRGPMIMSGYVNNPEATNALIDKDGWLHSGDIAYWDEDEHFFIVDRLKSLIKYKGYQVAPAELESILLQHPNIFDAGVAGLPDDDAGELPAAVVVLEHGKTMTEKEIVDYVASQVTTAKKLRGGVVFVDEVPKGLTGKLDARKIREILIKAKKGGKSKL
Sequence of FAD-linked sulfhydryl oxidase ALR (P55789 whole entry): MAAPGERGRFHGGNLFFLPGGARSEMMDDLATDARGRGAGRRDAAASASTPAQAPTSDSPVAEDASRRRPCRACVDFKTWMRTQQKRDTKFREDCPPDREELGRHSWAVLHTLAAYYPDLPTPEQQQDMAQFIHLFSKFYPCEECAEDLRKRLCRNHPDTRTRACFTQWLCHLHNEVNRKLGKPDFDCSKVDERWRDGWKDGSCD
Sequence of Genome polyprotein (P29990 2492-3391 limits assumed): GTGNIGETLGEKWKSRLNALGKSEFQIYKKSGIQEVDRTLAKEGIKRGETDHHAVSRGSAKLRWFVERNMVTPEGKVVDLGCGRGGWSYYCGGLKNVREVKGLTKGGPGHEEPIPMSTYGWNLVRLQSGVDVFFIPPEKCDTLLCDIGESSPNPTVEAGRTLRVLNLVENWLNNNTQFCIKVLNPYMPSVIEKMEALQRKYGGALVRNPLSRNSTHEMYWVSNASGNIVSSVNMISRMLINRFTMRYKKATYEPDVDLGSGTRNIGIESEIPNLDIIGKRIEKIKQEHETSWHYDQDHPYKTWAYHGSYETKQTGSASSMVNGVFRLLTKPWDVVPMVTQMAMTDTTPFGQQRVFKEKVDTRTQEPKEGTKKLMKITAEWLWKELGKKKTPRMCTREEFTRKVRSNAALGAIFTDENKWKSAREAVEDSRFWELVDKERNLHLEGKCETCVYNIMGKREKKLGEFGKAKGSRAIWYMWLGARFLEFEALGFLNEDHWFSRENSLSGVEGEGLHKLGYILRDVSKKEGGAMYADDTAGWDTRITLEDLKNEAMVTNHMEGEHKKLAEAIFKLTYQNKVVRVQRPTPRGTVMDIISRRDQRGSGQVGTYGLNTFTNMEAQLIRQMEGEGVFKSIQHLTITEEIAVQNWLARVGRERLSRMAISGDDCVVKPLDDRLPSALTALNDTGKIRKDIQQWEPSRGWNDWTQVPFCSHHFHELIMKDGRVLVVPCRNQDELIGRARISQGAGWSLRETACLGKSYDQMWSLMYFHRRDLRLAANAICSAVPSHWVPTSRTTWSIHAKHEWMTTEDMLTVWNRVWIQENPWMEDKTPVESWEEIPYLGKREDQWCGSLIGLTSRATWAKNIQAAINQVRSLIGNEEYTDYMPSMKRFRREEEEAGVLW

With `CSC1=NSC2=NC(=O)/C(=C\c3c[nH]c4ccccc34)C(=N)N12` the EC50 (Streptococcus) was > 150 µM (not active), the EC50 [1] was 17.9 µM (inconclusive) and the EC50 [2] was 1.95 µM (active). For the same compound, the EC50 (Streptokinase A) was > 150 µM (not active), the EC50 [3] was > 300 µM (inconclusive) and the IC50 (Genome polyprotein) was > 100 µM (active).

For `COc1ccc(S(=O)(=O)N2CCN=C2SCc2cccnc2)cc1`, the AC50 [4] was 0.243 µM (active).

With `COc1ccc(C(=O)N(C)C2CCCc3ccccc32)cc1OC1CCN(C(C)C)CC1` (configuration not stated) the IC50 [5] was 12.6 µM (active).

In the case of `Nc1nn(-c2ccccc2)c(N)c1N=Nc1cccc(F)c1`, the EC50 [6] is reported as 1.94 µM (active), the EC50 (BJ [7]) is reported as 124 µM (active) and the EC50 (BJ [8]) is reported as 3.92 µM (active). The EC50 (BJ [9]) was 36.7 µM (inconclusive).

For `CCOc1cccc2cc(C(=O)NCc3cccnc3)c(=O)oc12`, the EC50 [10] was > 112 µM (not active) and the EC50 [11] was > 112 µM (not active).

For `CCc1cc2c(N3CCN(c4nnc(CC)s4)CC3)ncnc2s1`, the IC50 [5] was 3.63 µM (active).

In the case of `CCN(CC)S(=O)(=O)c1cccc(-c2csc(C)n2)c1`, the AC50 [4] is reported as 4.41 µM (active).

In the case of `Cc1cccc(C(=O)Nc2nnc(-c3ccncc3)o2)c1`, the AC50 [4] is reported as 2.35 µM (active).

With `CCOc1ccc(S(=O)(=O)NCCC(=O)N2CCCN(C)CC2)cc1` the EC50 [10] was > 112 µM (not active) and the EC50 [11] was > 112 µM (not active).

In the case of `Cc1cccc(-c2cnn(-c3cccc([N+](=O)[O-])c3)c2N)c1`, the AC50 [4] is reported as 0.287 µM (active).

For `COc1ccccc1C(=O)N1CCN=C1SCc1cccnc1`, the AC50 [4] was 0.009 µM (active).

For `CCOc1ccc(/C=C/c2nc(O)nc(O)c2[N+](=O)[O-])cc1`, the IC50 (Genome polyprotein) was 45.9 µM (active).

For `COc1cc(C(=O)NCC(=O)N2CCN(S(=O)(=O)c3cc(C)ccc3C)CC2)cc(OC)c1OC`, the EC50 [6] was 14.5 µM (active), the EC50 (BJ [7]) was 31.8 µM (active) and the EC50 (BJ [8]) was 13.4 µM (active). The EC50 (BJ [9]) was 16.3 µM (active).

In the case of `CCCCCc1nc2sc3c(c2c(=O)n1N)CCC3`, the EC50 [10] is reported as > 112 µM (not active) and the EC50 [11] is reported as > 112 µM (not active).

For `CCOC(=O)Cc1sc(N)nc1C`, the EC50 [10] was > 112 µM (not active) and the EC50 [11] was > 112 µM (not active).

In the case of `Cc1csc(NC(=O)c2ccco2)n1`, the EC50 [10] is reported as > 112 µM (not active) and the EC50 [11] is reported as 20.1 µM (active).

From ChEMBL document CHEMBL1201862, “PubChem BioAssay data set” (2004)
